Source: PubChem BioAssay AID212 (DTP/NCI, 2004)
Several values for one entry are separate records, joined by “and”; a condition that tells them apart may be missing. Equal values may be shown once. Inconclusive results are not listed.

Test system: BDF1 mice, colon carcinoma 38 sc, T/C %
Test: NCI In Vivo Anticancer Drug Screen. Data for tumor model Colon Carcinoma 38 (subcutaneous) in B6D2F1 (BDF1) mice
Settings: endpoint: median tumor weight (est.), higher = larger tumour
Description: The antitumor activity of compounds was measured in mice bearing transplantable tumors. Survival or tumor size were measured and the results are expressed as the measurement made in the treated group (T) divided by the measurement made in the vehicle treated control group (C). The tumor model used in this assay is Colon Carcinoma 38 (subcutaneous) in B6D2F1 (BDF1) mice

[1] = dose: 100.0 mg/kg/injection, schedule: Q07DX002 (ip), vehicle: saline with Tween-80
[2] = dose: 200.0 mg/kg/injection, schedule: Q07DX002 (ip), vehicle: saline with Tween-80
[3] = dose: 12.5 mg/kg/injection, schedule: Q07DX002 (ip), vehicle: saline with Tween-80
[4] = dose: 12.5 mg/kg/injection, schedule: Q07DX002 (ip), vehicle: saline
[5] = dose: 25.0 mg/kg/injection, schedule: Q07DX002 (ip), vehicle: saline with Tween-80
[6] = dose: 25.0 mg/kg/injection, schedule: Q07DX002 (ip), vehicle: saline
[7] = dose: 50.0 mg/kg/injection, schedule: Q07DX002 (ip), vehicle: saline with Tween-80
[8] = dose: 50.0 mg/kg/injection, schedule: Q07DX002 (ip), vehicle: saline
[9] = dose: 100.0 mg/kg/injection, schedule: Q07DX002 (ip), vehicle: saline
[10] = dose: 200.0 mg/kg/injection, schedule: Q07DX002 (ip), vehicle: saline
[11] = dose: 50.0 mg/kg/injection, schedule: Q07DX003 (ip), vehicle: saline
[12] = dose: 6.25 mg/kg/injection, schedule: Q07DX002 (ip), vehicle: saline with Tween-80
[13] = dose: 3.0 mg/kg/injection, schedule: Q07DX002 (ip), vehicle: Klucel (hydroxypropylcellulose) (HPC)

## C/C=C\C1OC1(C)c1cc(=O)c2c(C)cc3c(c2o1)C(=O)c1c(O)c(C2CC(C)(N(C)C)C(OC(C)=O)C(C)O2)cc(C2CC(N(C)C)C(O)C(C)O2)c1C3=O (stereo unspecified)
dose: 0.38 mg/kg/injection, schedule: Q07DX002 (ip), vehicle: saline + alcohol
  T/C: 119 % of control
dose: 0.75 mg/kg/injection, schedule: Q07DX002 (ip), vehicle: saline + alcohol
  T/C: 85 % of control
dose: 3.0 mg/kg/injection, schedule: Q07DX002 (ip), vehicle: saline + alcohol
  T/C: 58 % of control
dose: 6.0 mg/kg/injection, schedule: Q07DX002 (ip), vehicle: saline + alcohol
  T/C: 53 % of control

## O=C(Nc1cccc(Cl)c1)ON1C(=O)C2C(C1=O)C1(Cl)C(Cl)C(Cl)C2(Cl)C1(Cl)Cl (stereo unspecified)
[1]
  T/C: 95 % of control
[2]
  T/C: 89 % of control
dose: 400.0 mg/kg/injection, schedule: Q07DX002 (ip), vehicle: saline with Tween-80
  T/C: 58 % of control

## OCC1OC(n2cnc3c(=S)nc[nH]c32)C(O)C1O (stereo unspecified)
[3]
  T/C: 61 % of control
[4]
  T/C: 90 % of control
[5]
  T/C: 97 % of control and 118 % of control
[6]
  T/C: 101 % of control
[7]
  T/C: 77 % of control and 83 % of control and 80 % of control
[8]
  T/C: 14 % of control
[9]
  T/C: 17 % of control
[10]
  T/C: 46 % of control
dose: 400.0 mg/kg/injection, schedule: Q07DX002 (ip), vehicle: saline
  T/C: 22 % of control
dose: 800.0 mg/kg/injection, schedule: Q07DX002 (ip), vehicle: saline with Tween-80
  T/C: 33 % of control and 34 % of control and 57 % of control
dose: 1600.0 mg/kg/injection, schedule: Q07DX002 (ip), vehicle: saline with Tween-80
  T/C: 28 % of control

## C[C@H](N)C(=O)N[C@@H]1[C@H]2C(=C(O)C[C@@H](O)[C@@H]2O)C(=O)O[C@@H]1C
dose: 150.0 mg/kg/injection, schedule: Q07DX002 (ip), vehicle: saline
  T/C: 65 % of control
dose: 300.0 mg/kg/injection, schedule: Q07DX002 (ip), vehicle: saline
  T/C: 96 % of control
dose: 1200.0 mg/kg/injection, schedule: Q07DX002 (ip), vehicle: saline
  T/C: 90 % of control
dose: 2400.0 mg/kg/injection, schedule: Q07DX002 (ip), vehicle: saline
  T/C: 96 % of control

## C#CCNC1=C(C)C(=O)C2=C(C1=O)[C@H](COC(N)=O)[C@]1(OC)[C@@H]3N[C@@H]3CN21
dose: 1.5 mg/kg/injection, schedule: Q07DX002 (ip), vehicle: distilled water + Tween-80
  T/C: 49 % of control
dose: 3.0 mg/kg/injection, schedule: Q07DX002 (ip), vehicle: distilled water + Tween-80
  T/C: 78 % of control
dose: 6.0 mg/kg/injection, schedule: Q07DX002 (ip), vehicle: distilled water + Tween-80
  T/C: 20 % of control

## CNNCc1ccc(C(=O)NC(C)C)cc1
[11]
  T/C: 110 % of control
dose: 100.0 mg/kg/injection, schedule: Q07DX003 (ip), vehicle: saline
  T/C: 123 % of control
dose: 200.0 mg/kg/injection, schedule: Q07DX003 (ip), vehicle: saline
  T/C: 99 % of control
dose: 400.0 mg/kg/injection, schedule: Q07DX003 (ip), vehicle: saline
  T/C: 35 % of control

## O=C(Nc1cccc2c(OC(=O)C(Cl)Cl)c(N=Nc3ccc(S(=O)(=O)Nc4nccs4)cc3)cc(N=Nc3ccc(S(=O)(=O)Nc4nccs4)cc3)c12)C(Cl)Cl (tested in a mixture with another compound)
[12]
  T/C: 91 % of control
[3]
  T/C: 100 % of control
[5]
  T/C: 77 % of control
[7]
  T/C: 92 % of control
[1]
  T/C: 88 % of control

## CC(=O)OCC1OC(OC(C)=O)C(NC(=O)N(CCCl)N=O)C(OC(C)=O)C1OC(C)=O (stereo unspecified)
dose: 0.75 mg/kg/injection, schedule: Q07DX002 (ip), vehicle: Klucel (hydroxypropylcellulose) (HPC)
  T/C: 100 % of control
dose: 1.5 mg/kg/injection, schedule: Q07DX002 (ip), vehicle: Klucel (hydroxypropylcellulose) (HPC)
  T/C: 82 % of control and 96 % of control
[13]
  T/C: 64 % of control

## C1OC1CN1CCN(CC2CO2)CC1 (stereo unspecified)
dose: 3.12 mg/kg/injection, schedule: Q07DX002 (ip), vehicle: saline
  T/C: 98 % of control
dose: 3.12 mg/kg/injection, schedule: Q07DX003 (ip), vehicle: saline
  T/C: 1 % of control
dose: 6.25 mg/kg/injection, schedule: Q07DX003 (ip), vehicle: saline
  T/C: 23 % of control
[4]
  T/C: 77 % of control
dose: 12.5 mg/kg/injection, schedule: Q07DX003 (ip), vehicle: saline
  T/C: 9 % of control
[6]
  T/C: 100 % of control
dose: 25.0 mg/kg/injection, schedule: Q07DX003 (ip), vehicle: saline
  T/C: 20 % of control
[8]
  T/C: 77 % of control
[11]
  T/C: 4 % of control

## C[C@H](N)C(=O)N[C@@H]1[C@H]2C(=C(O)C[C@@H](O)[C@@H]2O)C(=O)O[C@]1(C)C(Cl)Cl
dose: 0.37 mg/kg/injection, schedule: Q07DX002 (ip), vehicle: Klucel (hydroxypropylcellulose) (HPC)
  T/C: 97 % of control
dose: 0.38 mg/kg/injection, schedule: Q07DX002 (ip), vehicle: Klucel (hydroxypropylcellulose) (HPC)
  T/C: 75 % of control
[13]
  T/C: 53 % of control and 59 % of control
dose: 6.0 mg/kg/injection, schedule: Q07DX002 (ip), vehicle: Klucel (hydroxypropylcellulose) (HPC)
  T/C: 30 % of control and 40 % of control

## c1cnc2ncncc2n1
[12]
  T/C: 88 % of control
[3]
  T/C: 83 % of control and 95 % of control
[1]
  T/C: 80 % of control and 89 % of control
[9]
  T/C: 124 % of control
[2]
  T/C: 73 % of control and 88 % of control
[10]
  T/C: 181 % of control

## CCCC(=O)O
[6]
  T/C: 121 % of control
[8]
  T/C: 105 % of control
[10]
  T/C: 99 % of control

## N=C(N)c1ccc(/C=C/c2ccc(C(=N)N)cc2O)cc1
dose: 6.25 mg/kg/injection, schedule: Q07DX002 (ip), vehicle: water
  T/C: 86 % of control
dose: 12.5 mg/kg/injection, schedule: Q07DX002 (ip), vehicle: water
  T/C: 95 % of control
dose: 25.0 mg/kg/injection, schedule: Q07DX002 (ip), vehicle: water
  T/C: 112 % of control
dose: 100.0 mg/kg/injection, schedule: Q07DX002 (ip), vehicle: water
  T/C: 108 % of control

## CCC(C)C(=O)OC1C(=O)OC2CC3C(C)=CC(=O)C(O)C3(C)C3C4(O)OCC23C1C(C)C4O (stereo unspecified)
dose: 0.5 mg/kg/injection, schedule: Q07DX002 (ip), vehicle: suspension in saline
  T/C: 90 % of control
dose: 1.0 mg/kg/injection, schedule: Q07DX002 (ip), vehicle: suspension in saline
  T/C: 77 % of control
dose: 2.0 mg/kg/injection, schedule: Q07DX002 (ip), vehicle: suspension in saline
  T/C: 58 % of control
dose: 4.0 mg/kg/injection, schedule: Q07DX002 (ip), vehicle: suspension in saline
  T/C: 88 % of control
dose: 8.0 mg/kg/injection, schedule: Q07DX002 (ip), vehicle: suspension in saline
  T/C: 44 % of control

## COc1cccc2c1C(=O)c1c(O)c3c(c(O)c1C2=O)C[C@@](O)(C(=O)CO)C[C@@H]3OC1CC(OC(C)=O)C(OC(C)=O)C(C)O1 (stereo partly specified)
dose: 3.12 mg/kg/injection, schedule: Q07DX002 (ip), vehicle: distilled water + Tween-80
  T/C: 89 % of control
dose: 6.25 mg/kg/injection, schedule: Q07DX002 (ip), vehicle: distilled water + Tween-80
  T/C: 88 % of control
dose: 12.5 mg/kg/injection, schedule: Q07DX002 (ip), vehicle: distilled water + Tween-80
  T/C: 65 % of control
dose: 25.0 mg/kg/injection, schedule: Q07DX002 (ip), vehicle: distilled water + Tween-80
  T/C: 90 % of control
dose: 50.0 mg/kg/injection, schedule: Q07DX002 (ip), vehicle: distilled water + Tween-80
  T/C: 62 % of control

## COC1C(C)OC(OC2CC(C)(O)Cc3cc4c(c(O)c32)C(=O)c2c(O)cc3c(c2C4=O)OC2OC3(C)C(O)C(N(C)C)C2O)C(OC)C1(C)OC (stereo unspecified)
dose: 0.62 mg/kg/injection, schedule: Q07DX002 (ip), vehicle: other
  T/C: 53 % of control
dose: 1.25 mg/kg/injection, schedule: Q07DX002 (ip), vehicle: other
  T/C: 81 % of control
dose: 5.0 mg/kg/injection, schedule: Q07DX002 (ip), vehicle: other
  T/C: 83 % of control
dose: 10.0 mg/kg/injection, schedule: Q07DX002 (ip), vehicle: other
  T/C: 89 % of control

## CN=C(N)N/N=C(\c1ccccc1)c1ccc(Br)cc1
dose: 3.0 mg/kg/injection, schedule: Q07DX002 (ip), vehicle: saline with Tween-80
  T/C: 152 % of control
[12]
  T/C: 169 % of control
[3]
  T/C: 156 % of control
[7]
  T/C: 96 % of control
